{
  "source": "patent EP4707279A1",
  "about": "“SUBSTITUTED TRICYCLIC HETEROCYCLIC COMPOUND AS PHARMACEUTICAL FOR TREATMENT OR PREVENTION OF COVID-19” (priority 2023, dated 2024)",
  "key": {"Caco-2 cells": {"tested_on": "Caco-2 cells", "settings": "48 hours, CellTiter-Glo", "description": "(§1) To evaluate the cytotoxicity of the selected compound, CellTiter-Glo (registered trademark) Luminescent Cell Viability Assay (Promega Corporation, Madison, WI, USA) was conducted. Briefly, VeroE6-TMPRSS2 or Caco-2 cells (4×10^4 cells/well) were incubated with different concentrations of the compound for 48 hours, and then, the number of cells was measured as the amount of ATP in the cell lysate supernatant using CellTiter-Glo (registered trademark) Luminescent Cell Viability Assay method. The CC50 of the compound was calculated by GraphPad. The repeated test was conducted three times.\n(§2) VeroE6 (ATCC CRL-1586 (registered trademark)) and Vero E6-TMPRSS2 (BPS Bioscience Catalog #78081) as well as Caco-2 cells (ATCC HTB-37 (registered trademark)) were purchased as commercial products and they were passaged in Dulbecco's Modified Eagle Medium (DMEM, Gibco, CA, USA) supplemented with 10% heat-inactivated fetal bovine serum (FBS, Gibco, CA, USA), 50 U/mL penicillin, and 50 µg/mL streptomycin. All antibiotics and supplements were purchased from Thermo Fisher Scientific, Inc. (Waltham, MA)."}, "VeroE6-TMPRSS2 cells": {"tested_on": "VeroE6-TMPRSS2 cells", "settings": "48 hours, CellTiter-Glo", "description": "as §1, §2"}, "SARS-CoV-2 [1]": {"tested_on": "SARS-CoV-2", "experiment": "CPE inhibition assay, anti-SARS-CoV-2 virus activity in vitro (Test Example 4)", "assay_type": "cell-based"}, "SARS-CoV-2 [2]": {"tested_on": "SARS-CoV-2", "experiment": "microbe, parasite or virus in culture", "assay_type": "cell-based", "settings": "Severe acute respiratory syndrome coronavirus 2, VeroE6-TMPRSS2 cells, read-out: inhibition of CPE"}, "[3]": {"settings": "CPE inhibition at 10 µM, VeroE6-TMPRSS2 cells, MOI 0.01, third day post infection, average of three tests"}},
  "data": [
    {"compound": "O=C(NCc1ccc2ccccc2c1)[C@@H]1CC[C@H]2N1C(=O)[C@@H](Cc1ccccc1)N1C(=O)N(Cc3ccccc3)C(=O)N(Cc3ccccc3)[C@]21O", "note": "[Compound 1D, (6R,9S,11aR,11bR)-1,3,6-Tribenzyl-11b-hydroxy-N-(naphthalen-2-ylmethyl)-2,4,7-trioxo-2H-pyrrolo[2',1':3,4] pyridazine[1,2-a][1,3,5]triazine-9-carboxamide]", "values": [
      {"measurement": "CC50", "setting": "Caco-2 cells", "result": "> 400", "unit": "µM"},
      {"measurement": "CC50", "setting": "VeroE6-TMPRSS2 cells", "result": 145, "unit": "µM"},
      {"measurement": "Anti SARS-CoV-2 activity", "setting": "SARS-CoV-2 [1]; 10 µM", "result": "A (a CPE inhibition effect of 5% or more)"}
    ]},
    {"compound": "CCC(CC)COC(=O)[C@H](C)N[P@](=O)(OC[C@H]1O[C@@](C#N)(c2ccc3c(N)ncnn23)[C@H](O)[C@@H]1O)Oc1ccccc1", "note": "[Remdesivir]", "values": [
      {"measurement": "inhibition at 10 µM", "setting": "SARS-CoV-2 [2]", "result": "≥ 90", "unit": "%"}
    ]},
    {"compound": "Ethyl (6R)-1,3,6-tribenzyl-11b-hydroxy-2,4,7-trioxodecahydro-2H-pyrrolo[2',1':3,4] pyridazino[1,2-a] [1,3,5]triazine-9-carboxylate [Compound 22A]", "values": [
      {"measurement": "Anti SARS-CoV-2 activity", "setting": "SARS-CoV-2 [1]; [3]", "result": "B (a CPE inhibition effect of less than 5% but 1% or more)"}
    ]},
    {"compound": "Ethyl (6R,9S,11aR)-11b-hydroxy-6-isopropyl-2.4,7-trioxo-1,3-bis(thiophen-2-ylmethyl)decahydro-2H-pyrrolo[2',1':3,4] pyrazino[1,2-a][1,3,5] triazine-9-carboxylate [Compound 27A]", "values": [
      {"measurement": "Anti SARS-CoV-2 activity", "setting": "SARS-CoV-2 [1]; [3]", "result": "A (a CPE inhibition effect of 5% or more)"}
    ]},
    {"compound": "Ethyl (6R,9S,11aR,11bR)-1,3-dibenzyl-11b-hydroxy-6-(4-methoxybenzyl)-2,4.7-trioxodecahydro-2H-pyrrolo [2',1':3,4]pyrazino[1,2-a][1,3,5] triazine-9-carboxylate [Compound 6A]", "values": [
      {"measurement": "Anti SARS-CoV-2 activity", "setting": "SARS-CoV-2 [1]; [3]", "result": "C (less than 1%)"}
    ]},
    {"compound": "Ethyl (6R,9S,11aR,11bR)-1,3-dibenzyl-11b-hydroxy-6-methyl-2,4,7-trioxodecahydro-2H-pyrrolo[2',1':3,4]pyrazino[1,2-a] [1.3.5]triazine-9-carboxylate [Compound 2A]", "values": [
      {"measurement": "Anti SARS-CoV-2 activity", "setting": "SARS-CoV-2 [1]; [3]", "result": "C (less than 1%)"}
    ]},
    {"compound": "Ethyl (6R,9S,11aR,11bR)-1.3 dibenzyl 11b-hydroxy 6 isobutyl-2.4.7 trioxodecahydro-2H pyrrolo[2',1':3,4] pyrazino[1.2 a][1.3.5] triazine 9 carboxylate [Compound 30A]", "values": [
      {"measurement": "Anti SARS-CoV-2 activity", "setting": "SARS-CoV-2 [1]; [3]", "result": "A (a CPE inhibition effect of 5% or more)"}
    ]},
    {"compound": "Ethyl (6R.9S.11aR.11b R) 6 benzyl 11b-hydroxy 2,4,7 trioxo-1.3 bis(thiophen 2 ylm ethyl)decahydro-2H-pyrrolo[2',1':3,4] pyridazine[1,2-a] [1,3,5]triazine 9 carboxylate [Compound 18A]", "values": [
      {"measurement": "Anti SARS-CoV-2 activity", "setting": "SARS-CoV-2 [1]; [3]", "result": "A (a CPE inhibition effect of 5% or more)"}
    ]},
    {"compound": "Ethyl (6S,9R,11aS)-6-benzyl-11b-hydroxy-2,4.7-trioxo-1,3-bis(thiophen-2-ylmethyl) decahydro-2H-pyrrolo[2',1':3,4] pyrazino[1,2-a][1,3,5] triazine-9-carboxylate [Compound 23A]", "values": [
      {"measurement": "Anti SARS-CoV-2 activity", "setting": "SARS-CoV-2 [1]; [3]", "result": "A (a CPE inhibition effect of 5% or more)"}
    ]},
    {"compound": "Ethyl (6S,9R,11aS,11bS)-1,3,6-tribenzyl-11b-hydroxy-2,4.7-trioxodecahydro-2H-pyrrolo [2',1':3,4]pyrazino[1,2-a][1,3,5] triazine-9-carboxylate [Compound 4A]", "values": [
      {"measurement": "Anti SARS-CoV-2 activity", "setting": "SARS-CoV-2 [1]; [3]", "result": "C (less than 1%)"}
    ]}
  ]
}
